Tested on: ASD patients
Assay: Phase IIa clinical trial (REIMAGINE), ASD cohort treated with vafidemstat for 8 weeks
Assay type: in vivo, human
Details: 1.2 mg/day oral
Description: As part of a Phase II a clinical trial (REIMAGINE trial, EudraCT number 2018-002140-88) to evaluate the safety, tolerability and efficacy of vafidemstat to treat aggression in adult population in patients with different CNS disorders, a cohort of ASD patients was recruited and treated with vafidemstat for 8 weeks. A summary of the protocol of this clinical trial and results obtained in the ASD cohort are provided below.
Reimagine is a unicenter, open-label, 1-arm, 8-week clinical study to evaluate the efficacy, safety and tolerability of vafidemstat in aggression in adult population with ASD, ADHD and BPD.
Main objective of the trial: To evaluate the safety and tolerability of vafidemstat in adult population with ASD ADHD and BPD.
Secondary objectives of the trial: To investigate the efficacy of vafidemstat in aggression in adult population with ASD ADHD and BPD.
Main inclusion criteria: • age 18-85 • current diagnosis for ASD, ADHD or BPD according to DSM-5 criteria • significant or persistent agitation or aggression that was disruptive to patient's daily living or put the patient in harm's way for at least 3 days per week for at least 4 weeks prior to screening visit
Treatment: All patients received vafidemstat (as free base) at a dose of 1.2 mg/day, administered orally as a single capsule, in a 5 days on/2 days off schedule, during 8 weeks.
Six ASD patients were recruited, but there was one drop-out, and therefore the results as described herein correspond to the 5 ASD subjects eligible for analysis. A summary of the patients recruited in this ASD cohort (demographic data at baseline) can be found in Table 1.
Evaluation of the effect of treatment with vafidemstat on aggression was performed using the NPI A/A as well as the CGI-I and CGI-S scales. The NPI A/A subscale is based on the NPI and consists of the 4 items in the NPI related to aggression/agitation, namely: agitation/aggression, disinhibition, irritability and aberrant motor disturbance. The severity of each of the 4 items in the NPI A/A scale is rated from 1 to 3 (1=mild, 2=moderate, 3=severe) and the NPI A/A score is calculated as the sum of the scores for all 4 items. CGI values reflect clinician's ratings of patient's aggression severity (CGI-S scale) and improvement in aggression from the initiation (baseline) of the treatment (CGI-I scale). In the CGI-I scale, change from initiation of treatment is rated using a seven-point scale, where 1=very much improved since initiation of treatment, 7=very much worse since initiation of treatment, and 4=no change from baseline. In the CGI-S scale, illness/condition severity is rated using a seven-point scale, the higher the score, the more severe the illness/condition, with 1=normal, not at all ill and 7=among the most extremely ill patients.
In addition to assessing its effect on aggression, the effect of treatment with vafidemstat on ASD patients was also evaluated using the total NPI scale and the NPI non-aggression related combined score. The total NPI scale consists of 12 items relating to a variety of neuropsychiatric domains (namely: delusions, hallucinations, agitation/aggression, depression, anxiety, euphoria/elation, apathy/indifference, disinhibition, irritability, aberrant motor disturbance, nighttime behavior, and appetite/eating disorders) and was used to measure global functioning in ASD patients. The severity of each item in the NPI is rated from 1 to 3 (1=mild, 2=moderate, 3=severe) and the total NPI score is calculated as the sum of the scores for all 12 items. The NPI non-aggression related combined score is the NPI combined score for all other items in the NPI not related to aggression or agitation (8 items; namely: delusions, hallucinations, depression, anxiety, euphoria/elation, apathy/indifference, nighttime behavior, and appetite/eating disorders). […]

[1] = adult ASD patients, 5 days on/2 days off, 8 weeks

SMILES: Nc1nnc(CN[C@@H]2C[C@H]2c2ccc(OCc3ccccc3)cc2)o1 [Vafidemstat, 5-((((1R,2S)-2-(4-(benzyloxy)phenyl)cyclopropyl)amino)methyl)-1,3,4-oxadiazol-2-amine]
- total NPI score (12 items), visit 1 to visit 7 (5 ASD patients, baseline vs 2 months of treatment, p=0.0019 (FIG. 4)): statistically significant reduction
- NPI non-aggression related combined score (8 items), visit 1 to visit 7 (5 ASD patients, baseline vs 2 months of treatment, p=0.0142 (FIG. 5)): statistically significant reduction
- CGI-S value, visit 1 to visit 7 (5 ASD patients, baseline vs 8 weeks treatment, no paired test could be calculated (FIG. 3)): reduction
- CGI-I value, visit 1 to visit 7 (5 ASD patients, baseline vs 8 weeks treatment, p=0.0019 (FIG. 2)): statistically significant reductions
- NPI A/A (4-item agitation/aggression subscale) value, visit 1 to visit 7 (5 ASD patients, baseline vs 8 weeks treatment, p=0.0098 (FIG. 1)): statistically significant reductions
- safety and tolerability [1]: safe and well tolerated, without significant adverse events
- sedation [1]: No sedation
- CGI-S score, visit 1 to visit 7, cohort with one additional patient (n=6 ASD patients, baseline vs 8 weeks treatment, p=0.0006 (FIG. 6)): statistically significant reduction
